# Experimental data: publication PMC7093416, “Selective USP7 inhibition elicits cancer cell killing through a p53-dependent mechanism” (Scientific Reports, 2020)
# “And” between values parts separate entries of the source, which are not always exact repeats. Equal entries are not always repeated.
# System: panel of 484 cancer cell lines
# Assay: PRISM cancer cell line profiling, 5 days
# Format: cell-based
# Set-up: Viability: scale not given here; AUC: unit not given beside the values
# Description: Cancer cell line profiling was performed using the Broad’s PRISM platform. Cell treatment and data analysis were performed as described in Yu et al[42]. Raw Luminex signal was converted to AUC values for each cell line as described. The resulting AUC profile for each compound was modeled against DepMap using the limma package in R[71]. Because hotspot mutation analysis was performed against DepMap, TP53 annotations in Fig. 6c,d are directly from DepMap.
# [1] = HEC59_ENDOMETRIUM, pert_dose 6.10E-04
# [2] = HEC108_ENDOMETRIUM, pert_dose 6.10E-04
# [3] = HEC151_ENDOMETRIUM, pert_dose 6.10E-04
# [4] = HEP3B217_LIVER, pert_dose 6.10E-04
# [5] = HEYA8_OVARY, pert_dose 6.10E-04
# [6] = HPAC_PANCREAS, pert_dose 6.10E-04
# [7] = HS294T_SKIN, pert_dose 6.10E-04
# [8] = HS618T_LUNG, pert_dose 6.10E-04
# [9] = HS729_SOFT_TISSUE, pert_dose 6.10E-04
# [10] = HS766T_PANCREAS, pert_dose 6.10E-04
# [11] = HS852T_SKIN, pert_dose 6.10E-04
# [12] = HS939T_SKIN, pert_dose 6.10E-04
# [13] = HSC2_UPPER_AERODIGESTIVE_TRACT, pert_dose 6.10E-04
# [14] = HSC3_UPPER_AERODIGESTIVE_TRACT, pert_dose 6.10E-04
# [15] = HT29_LARGE_INTESTINE, pert_dose 6.10E-04
# [16] = HT55_LARGE_INTESTINE, pert_dose 6.10E-04
# [17] = HUCCT1_BILIARY_TRACT, pert_dose 6.10E-04
# [18] = HUH28_BILIARY_TRACT, pert_dose 6.10E-04
# [19] = IGROV1_OVARY, pert_dose 6.10E-04
# [20] = IPC298_SKIN, pert_dose 6.10E-04
compound,measurement,setting,value
COc1ccc(C2=N[C@@H](c3ccc(Cl)cc3)[C@@H](c3ccc(Cl)cc3)N2C(=O)N2CCNC(=O)C2)c(OC(C)C)c1 [Nutlin-3A],AUC,HEC59_ENDOMETRIUM,1.062
same,MFI HEC59_ENDOMETRIUM,[1],10418.5 and 8852 and 7376 and 10636 and 7469
same,Viability,[1],1.236
same,AUC,HEC108_ENDOMETRIUM,0.9813
same,MFI HEC108_ENDOMETRIUM,[2],22169.5 and 21680 and 21571 and 20999 and 14974
same,Viability,[2],1.448
same,AUC,HEC151_ENDOMETRIUM,0.8923
same,MFI HEC151_ENDOMETRIUM,[3],15512 and 13471 and 16551 and 13036 and 13374
same,Viability,[3],1.158
same,AUC,HEC251_ENDOMETRIUM,1.051
same,AUC,HEC265_ENDOMETRIUM,0.862
same,Viability,"HEC265_ENDOMETRIUM, pert_dose 6.10E-04",1.3422
same,AUC,HEP3B217_LIVER,1.168
same,MFI HEP3B217_LIVER,[4],4895 and 4355 and 5398 and 5541 and 7085.5
same,Viability,[4],1.05
same,AUC,HEYA8_OVARY,0.8732
same,MFI HEYA8_OVARY,[5],14485.5 and 11701.5 and 12129 and 10947 and 12823
same,Viability,[5],1.321
same,AUC,HGC27_STOMACH,1.116
same,AUC,HLF_LIVER,1.153
same,AUC,HMC18_BREAST,1.214
same,MFI HMC18_BREAST,"HMC18_BREAST, pert_dose 6.10E-04",29555.5 and 31726 and 28535 and 27291 and 25031.5
same,AUC,HOS_BONE,1.0473
same,MFI HOS_BONE,"HOS_BONE, pert_dose 6.10E-04",25115 and 17203.5 and 23311.5 and 23304 and 24478
same,Viability,"HOS_BONE, pert_dose 6.10E-04",1.257
same,AUC,HPAC_PANCREAS,1.491
same,MFI HPAC_PANCREAS,[6],14040 and 13836.5 and 12138 and 14386 and 13656
same,Viability,[6],1.593
same,AUC,HS294T_SKIN,0.8649
same,MFI HS294T_SKIN,[7],15509 and 11081.5 and 12624.5 and 16477 and 13812.5
same,Viability,[7],1.3841
same,AUC,HS618T_LUNG,1.119
same,MFI HS618T_LUNG,[8],423.5 and 422.5 and 583 and 491 and 486.5
same,Viability,[8],1.131
same,AUC,HS729_SOFT_TISSUE,1.053
same,MFI HS729_SOFT_TISSUE,[9],5267.5 and 3467.5 and 6111 and 4197 and 4598
same,Viability,[9],1.333
same,AUC,HS766T_PANCREAS,1.165
same,MFI HS766T_PANCREAS,[10],2873 and 4107.5 and 4713 and 3779 and 3684
same,Viability,[10],0.8691
same,AUC,HS852T_SKIN,0.95
same,MFI HS852T_SKIN,[11],952 and 665.5 and 666.5 and 706 and 781.5
same,Viability,[11],1.404
same,AUC,HS939T_SKIN,0.8847
same,MFI HS939T_SKIN,[12],1676 and 1756.5 and 2260 and 2253 and 2240
same,Viability,[12],0.6815
same,AUC,HS944T_SKIN,1.082
same,AUC,HSC2_UPPER_AERODIGESTIVE_TRACT,0.986
same,MFI HSC2_UPPER_AERODIGESTIVE_TRACT,[13],16228 and 12093.5 and 8568 and 11207.5 and 10414
same,Viability,[13],1.409
same,AUC,HSC3_UPPER_AERODIGESTIVE_TRACT,1.141
same,MFI HSC3_UPPER_AERODIGESTIVE_TRACT,[14],19468 and 21785 and 24258 and 21275 and 18776
same,Viability,[14],1.0036
same,AUC,HT29_LARGE_INTESTINE,1.34
same,MFI HT29_LARGE_INTESTINE,[15],15605 and 16428.5 and 18104 and 14824 and 17298
same,Viability,[15],1.215
same,AUC,HT55_LARGE_INTESTINE,1.149
same,MFI HT55_LARGE_INTESTINE,[16],18343 and 20659.5 and 20881.5 and 14879 and 18638
same,Viability,[16],1.081
same,AUC,HT144_SKIN,0.8778
same,AUC,HT1080_SOFT_TISSUE,0.7842
same,AUC,HT1376_URINARY_TRACT,1.193
same,AUC,HUCCT1_BILIARY_TRACT,1.095
same,MFI HUCCT1_BILIARY_TRACT,[17],24976 and 22701 and 21301.5 and 24041 and 22645
same,Viability,[17],1.1214
same,AUC,HUH6_LIVER,1.038
same,MFI HUH6_LIVER,"HUH6_LIVER, pert_dose 6.10E-04",2954 and 3148.5 and 3422 and 2906 and 2817
same,Viability,"HUH6_LIVER, pert_dose 6.10E-04",1.443
same,AUC,HUH7_LIVER,1.414
same,MFI HUH7_LIVER,"HUH7_LIVER, pert_dose 6.10E-04",2519 and 3872.5 and 2817 and 4186 and 2978
same,Viability,"HUH7_LIVER, pert_dose 6.10E-04",1.154
same,AUC,HUH28_BILIARY_TRACT,1.075
same,MFI HUH28_BILIARY_TRACT,[18],10419.5 and 14552 and 18877 and 11771 and 16814
same,Viability,[18],1.064
same,AUC,HUPT3_PANCREAS,1.108
same,MFI HUPT3_PANCREAS,"HUPT3_PANCREAS, pert_dose 6.10E-04",6399 and 3235.5 and 3378 and 3719 and 5662
same,AUC,IALM_LUNG,1.093
same,MFI IALM_LUNG,"IALM_LUNG, pert_dose 6.10E-04",15214 and 17539 and 16640 and 15373 and 14718
same,Viability,"IALM_LUNG, pert_dose 6.10E-04",0.9343
same,AUC,IGR1_SKIN,0.9397
same,MFI IGR1_SKIN,"IGR1_SKIN, pert_dose 6.10E-04",9685 and 12749 and 10992 and 10674 and 10187.5
same,Viability,"IGR1_SKIN, pert_dose 6.10E-04",1.096
same,AUC,IGR37_SKIN,1.088
same,Viability,"IGR37_SKIN, pert_dose 6.10E-04",0.7539
same,AUC,IGROV1_OVARY,0.9652
same,MFI IGROV1_OVARY,[19],16733 and 14037 and 9860 and 14121 and 11292
same,Viability,[19],1.232
same,AUC,IM95_STOMACH,0.8918
same,AUC,IPC298_SKIN,1.102
same,MFI IPC298_SKIN,[20],24999 and 31830 and 20542 and 28455.5 and 32422
same,Viability,[20],1.1324
same,AUC,ISHIKAWAHERAKLIO02ER_ENDOMETRIUM,1.148
